Reference: PubChem BioAssay (NCI)
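The compound was tested at five concentrations on cells cultured in 96-well plates, with a 48-hour exposure period. TGI: total growth inhibition.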

Experiments:
Experiment in all cases: NCI-60 cell line screen, 48 h
786-0 renal = test system: 786-0 renal
A498 renal = test system: A498 renal
A549 NSCLC = test system: A549 NSCLC
ACHN renal = test system: ACHN renal
BT-549 breast = test system: BT-549 breast
CAKI-1 renal = test system: CAKI-1 renal
CCRF-CEM leukemia = test system: CCRF-CEM leukemia
COLO 205 colon = test system: COLO 205 colon
DU-145 prostate = test system: DU-145 prostate
EKVX NSCLC = test system: EKVX NSCLC
HCT-116 colon = test system: HCT-116 colon
HCT-15 colon = test system: HCT-15 colon
HL-60(TB) leukemia = test system: HL-60(TB) leukemia
HOP-62 NSCLC = test system: HOP-62 NSCLC
HOP-92 NSCLC = test system: HOP-92 NSCLC
HS 578T breast = test system: HS 578T breast
HT29 colon = test system: HT29 colon
IGROV1 ovarian = test system: IGROV1 ovarian
KM12 colon = test system: KM12 colon
LOX IMVI melanoma = test system: LOX IMVI melanoma
M14 melanoma = test system: M14 melanoma
MALME-3M melanoma = test system: MALME-3M melanoma
MCF7 breast = test system: MCF7 breast
MDA-MB-435 = test system: MDA-MB-435
MDA-N = test system: MDA-N
MOLT-4 leukemia = test system: MOLT-4 leukemia
NCI-H226 lung = test system: NCI-H226 lung
NCI-H23 lung = test system: NCI-H23 lung
NCI-H460 lung = test system: NCI-H460 lung
NCI-H522 lung = test system: NCI-H522 lung
NCI/ADR-RES ovarian = test system: NCI/ADR-RES ovarian
OVCAR-3 ovarian = test system: OVCAR-3 ovarian
OVCAR-4 ovarian = test system: OVCAR-4 ovarian
OVCAR-5 ovarian = test system: OVCAR-5 ovarian
OVCAR-8 ovarian = test system: OVCAR-8 ovarian
PC-3 prostate = test system: PC-3 prostate
RXF 393 renal = test system: RXF 393 renal
SF-268 CNS = test system: SF-268 CNS
SF-295 CNS = test system: SF-295 CNS
SF-539 CNS = test system: SF-539 CNS
SK-MEL-2 melanoma = test system: SK-MEL-2 melanoma
SK-MEL-28 melanoma = test system: SK-MEL-28 melanoma
SK-MEL-5 melanoma = test system: SK-MEL-5 melanoma
SK-OV-3 ovarian = test system: SK-OV-3 ovarian
SN12C renal = test system: SN12C renal
SNB-19 CNS = test system: SNB-19 CNS
SNB-75 CNS = test system: SNB-75 CNS
SR leukemia = test system: SR leukemia
SW-620 colon = test system: SW-620 colon
T-47D breast = test system: T-47D breast
TK-10 renal = test system: TK-10 renal
U251 CNS = test system: U251 CNS
UACC-257 melanoma = test system: UACC-257 melanoma
UACC-62 melanoma = test system: UACC-62 melanoma
UO-31 renal = test system: UO-31 renal
HCC-2998 colon = test system: HCC-2998 colon
K-562 leukemia = test system: K-562 leukemia
MDA-MB-231 breast = test system: MDA-MB-231 breast
RPMI-8226 leukemia = test system: RPMI-8226 leukemia

`CCCCC1=C(C(=O)N2CCOCC2)C2(OCCO2)C1=O` was tested, and the TGI (786-0 renal) was 40.6 µM, the TGI (A498 renal) was 62.1 µM and the TGI (A549 NSCLC) was 87.7 µM. The TGI (ACHN renal) was 34.8 µM, the TGI (BT-549 breast) was 78.8 µM and the TGI (CAKI-1 renal) was 78.1 µM. The TGI (CCRF-CEM leukemia) was greater than 100 µM, the TGI (COLO 205 colon) was 40.2 µM and the TGI (DU-145 prostate) was greater than 100 µM. It also gave a TGI (EKVX NSCLC) greater than 100 µM, a TGI (HCT-116 colon) of 48.6 µM and a TGI (HCT-15 colon) of 40.3 µM. It also gave a TGI (HL-60(TB) leukemia) of 61.2 µM, a TGI (HOP-62 NSCLC) of 54.1 µM and a TGI (HOP-92 NSCLC) of 66.4 µM. It also gave a TGI (HS 578T breast) greater than 100 µM, a TGI (HT29 colon) of 45.1 µM and a TGI (IGROV1 ovarian) of 37 µM. For the same molecule, the TGI (KM12 colon) was 55.9 µM, the TGI (LOX IMVI melanoma) was 25.4 µM and the TGI (M14 melanoma) was 43.8 µM. The TGI (MALME-3M melanoma) was 57 µM, the TGI (MCF7 breast) was greater than 100 µM and the TGI (MDA-MB-435) was 50.8 µM. For the same molecule, the TGI (MDA-N) was 71.2 µM, the TGI (MOLT-4 leukemia) was greater than 100 µM and the TGI (NCI-H226 lung) was 20.5 µM. The TGI (NCI-H23 lung) was 51.1 µM, the TGI (NCI-H460 lung) was greater than 100 µM and the TGI (NCI-H522 lung) was 32.6 µM. The TGI (NCI/ADR-RES ovarian) was 57.2 µM, the TGI (OVCAR-3 ovarian) was 39.7 µM and the TGI (OVCAR-4 ovarian) was greater than 100 µM. The TGI (OVCAR-5 ovarian) was 46.8 µM, the TGI (OVCAR-8 ovarian) was 58.3 µM and the TGI (PC-3 prostate) was 98.3 µM. It also gave a TGI (RXF 393 renal) of 50.3 µM, a TGI (SF-268 CNS) of 86.7 µM and a TGI (SF-295 CNS) greater than 100 µM. For the same molecule, the TGI (SF-539 CNS) was 46.5 µM, the TGI (SK-MEL-2 melanoma) was 71.7 µM and the TGI (SK-MEL-28 melanoma) was 94.8 µM. The TGI (SK-MEL-5 melanoma) was 33.2 µM, the TGI (SK-OV-3 ovarian) was greater than 100 µM and the TGI (SN12C renal) was 32.7 µM. For the same molecule, the TGI (SNB-19 CNS) was 43.2 µM, the TGI (SNB-75 CNS) was greater than 100 µM and the TGI (SR leukemia) was greater than 100 µM. The TGI (SW-620 colon) was 81.9 µM, the TGI (T-47D breast) was greater than 100 µM and the TGI (TK-10 renal) was greater than 100 µM. The TGI (U251 CNS) was 88.3 µM, the TGI (UACC-257 melanoma) was 89.9 µM and the TGI (UACC-62 melanoma) was 94.8 µM. For the same molecule, the TGI (UO-31 renal) was 30.3 µM.
For `O=c1c(Cc2ccc(Cl)cc2)nnc2sc(-c3ccc(-c4ccc(F)c(Cl)c4)o3)nn12`, the TGI (786-0 renal) was greater than 100 µM, the TGI (A498 renal) was greater than 100 µM and the TGI (A549 NSCLC) was greater than 100 µM. For the same molecule, the TGI (ACHN renal) was greater than 100 µM, the TGI (BT-549 breast) was greater than 100 µM and the TGI (CAKI-1 renal) was greater than 100 µM. It also gave a TGI (CCRF-CEM leukemia) greater than 100 µM, a TGI (COLO 205 colon) greater than 100 µM and a TGI (DU-145 prostate) greater than 100 µM. It also gave a TGI (EKVX NSCLC) greater than 100 µM, a TGI (HCC-2998 colon) greater than 100 µM and a TGI (HCT-116 colon) greater than 100 µM. It also gave a TGI (HCT-15 colon) greater than 100 µM, a TGI (HL-60(TB) leukemia) greater than 100 µM and a TGI (HOP-62 NSCLC) greater than 100 µM. It also gave a TGI (HOP-92 NSCLC) greater than 100 µM, a TGI (HS 578T breast) greater than 100 µM and a TGI (HT29 colon) greater than 100 µM. The TGI (IGROV1 ovarian) was greater than 100 µM, the TGI (K-562 leukemia) was greater than 100 µM and the TGI (KM12 colon) was greater than 100 µM. It also gave a TGI (LOX IMVI melanoma) greater than 100 µM, a TGI (M14 melanoma) greater than 100 µM and a TGI (MALME-3M melanoma) greater than 100 µM. For the same molecule, the TGI (MCF7 breast) was greater than 100 µM, the TGI (MDA-MB-231 breast) was greater than 100 µM and the TGI (MDA-MB-435) was greater than 100 µM. For the same molecule, the TGI (MDA-N) was greater than 100 µM, the TGI (MOLT-4 leukemia) was greater than 100 µM and the TGI (NCI-H226 lung) was greater than 100 µM. The TGI (NCI-H23 lung) was greater than 100 µM, the TGI (NCI-H460 lung) was greater than 100 µM and the TGI (NCI-H522 lung) was greater than 100 µM. The TGI (NCI/ADR-RES ovarian) was greater than 100 µM, the TGI (OVCAR-4 ovarian) was greater than 100 µM and the TGI (OVCAR-5 ovarian) was greater than 100 µM. For the same molecule, the TGI (OVCAR-8 ovarian) was greater than 100 µM, the TGI (PC-3 prostate) was greater than 100 µM and the TGI (RPMI-8226 leukemia) was greater than 100 µM. For the same molecule, the TGI (RXF 393 renal) was greater than 100 µM, the TGI (SF-268 CNS) was greater than 100 µM and the TGI (SF-295 CNS) was greater than 100 µM. It also gave a TGI (SF-539 CNS) greater than 100 µM, a TGI (SK-MEL-2 melanoma) greater than 100 µM and a TGI (SK-MEL-28 melanoma) greater than 100 µM. The TGI (SK-MEL-5 melanoma) was greater than 100 µM, the TGI (SK-OV-3 ovarian) was greater than 100 µM and the TGI (SN12C renal) was greater than 100 µM. For the same molecule, the TGI (SNB-19 CNS) was greater than 100 µM, the TGI (SW-620 colon) was greater than 100 µM and the TGI (T-47D breast) was greater than 100 µM. The TGI (TK-10 renal) was greater than 100 µM, the TGI (U251 CNS) was greater than 100 µM and the TGI (UACC-257 melanoma) was greater than 100 µM. It also gave a TGI (UACC-62 melanoma) greater than 100 µM and a TGI (UO-31 renal) greater than 100 µM.
`C1=C2C3=[N+](CCCCC3)CC2Cc2ccsc21` (stereo unspecified) gave a TGI (786-0 renal) greater than 100 µM, a TGI (A498 renal) greater than 100 µM and a TGI (A549 NSCLC) greater than 100 µM. It also gave a TGI (ACHN renal) greater than 100 µM, a TGI (BT-549 breast) greater than 100 µM and a TGI (CAKI-1 renal) greater than 100 µM. It also gave a TGI (CCRF-CEM leukemia) greater than 100 µM, a TGI (COLO 205 colon) greater than 100 µM and a TGI (DU-145 prostate) greater than 100 µM. For the same molecule, the TGI (EKVX NSCLC) was greater than 100 µM, the TGI (HCT-116 colon) was greater than 100 µM and the TGI (HCT-15 colon) was greater than 100 µM. For the same molecule, the TGI (HL-60(TB) leukemia) was greater than 100 µM, the TGI (HOP-62 NSCLC) was greater than 100 µM and the TGI (HOP-92 NSCLC) was greater than 100 µM. It also gave a TGI (HS 578T breast) greater than 100 µM, a TGI (HT29 colon) greater than 100 µM and a TGI (IGROV1 ovarian) greater than 100 µM. The TGI (K-562 leukemia) was greater than 100 µM, the TGI (KM12 colon) was greater than 100 µM and the TGI (LOX IMVI melanoma) was greater than 100 µM. For the same molecule, the TGI (M14 melanoma) was greater than 100 µM, the TGI (MALME-3M melanoma) was greater than 100 µM and the TGI (MCF7 breast) was greater than 100 µM. The TGI (MDA-MB-231 breast) was greater than 100 µM, the TGI (MDA-MB-435) was greater than 100 µM and the TGI (MDA-N) was greater than 100 µM. For the same molecule, the TGI (MOLT-4 leukemia) was greater than 100 µM, the TGI (NCI-H226 lung) was greater than 100 µM and the TGI (NCI-H23 lung) was greater than 100 µM. The TGI (NCI-H460 lung) was greater than 100 µM, the TGI (NCI-H522 lung) was greater than 100 µM and the TGI (NCI/ADR-RES ovarian) was greater than 100 µM. It also gave a TGI (OVCAR-3 ovarian) greater than 100 µM, a TGI (OVCAR-4 ovarian) greater than 100 µM and a TGI (OVCAR-5 ovarian) greater than 100 µM. It also gave a TGI (OVCAR-8 ovarian) greater than 100 µM, a TGI (PC-3 prostate) greater than 100 µM and a TGI (RXF 393 renal) greater than 100 µM. The TGI (SF-268 CNS) was greater than 100 µM, the TGI (SF-295 CNS) was greater than 100 µM and the TGI (SK-MEL-2 melanoma) was greater than 100 µM. For the same molecule, the TGI (SK-MEL-28 melanoma) was greater than 100 µM, the TGI (SK-MEL-5 melanoma) was greater than 100 µM and the TGI (SK-OV-3 ovarian) was greater than 100 µM. For the same molecule, the TGI (SN12C renal) was greater than 100 µM, the TGI (SNB-19 CNS) was greater than 100 µM and the TGI (SNB-75 CNS) was greater than 100 µM. It also gave a TGI (SW-620 colon) greater than 100 µM, a TGI (T-47D breast) greater than 100 µM and a TGI (TK-10 renal) greater than 100 µM. For the same molecule, the TGI (U251 CNS) was greater than 100 µM, the TGI (UACC-257 melanoma) was 85.3 µM and the TGI (UACC-62 melanoma) was greater than 100 µM. It also gave a TGI (UO-31 renal) greater than 100 µM.
